The values below come from ChEMBL document CHEMBL3714753, “Substituted tetrahydroquinolines, phenylacetic acids and benzoic acids as hepatocyte nuclear factor 4 (hnf-4 ) modulator compounds” (2005).

Molecules are shown by their SMILES.

One may read the EC50 as the midpoint of the concentration-response curve. Usually Ki stands for a dissociation constant, usually derived from enzyme kinetics or from competition with a known ligand. For orientation: IC50 means the concentration that inhibits the measured activity by half.

For assay [1], the target named is T1, Hepatocyte nuclear factor 4-alpha (Rattus norvegicus) (UniProt P22449).
T1 sequence (whole entry): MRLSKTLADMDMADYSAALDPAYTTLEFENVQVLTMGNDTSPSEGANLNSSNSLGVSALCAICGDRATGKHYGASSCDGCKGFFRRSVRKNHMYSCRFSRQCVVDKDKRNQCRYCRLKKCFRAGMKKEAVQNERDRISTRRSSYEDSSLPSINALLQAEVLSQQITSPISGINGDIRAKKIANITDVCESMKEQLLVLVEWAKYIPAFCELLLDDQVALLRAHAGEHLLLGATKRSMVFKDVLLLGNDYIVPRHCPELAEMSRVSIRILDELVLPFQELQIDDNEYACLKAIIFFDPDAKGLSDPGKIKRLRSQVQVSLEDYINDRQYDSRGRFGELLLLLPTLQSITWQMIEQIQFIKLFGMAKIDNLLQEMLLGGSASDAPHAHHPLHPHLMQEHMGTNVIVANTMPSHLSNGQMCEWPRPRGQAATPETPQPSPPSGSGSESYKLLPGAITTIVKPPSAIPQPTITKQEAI
Kind of assay: Agonist activity at rat HNF4alpha1 expressed in African green monkey CV1 cells incubated for 24 hrs by firefly luciferase reporter gene assay relative to LGOI00695. As to conditions: CV-1. In kind it is functional, cell-based.

In assay [2] the target is T2, Hepatocyte nuclear factor 4-alpha (Rattus norvegicus, UniProt P22449).
T2 sequence (P22449 whole entry): T1 sequence (whole entry)
Description: Agonist activity at rat HNF4alpha1 expressed in African green monkey CV1 cells incubated for 24 hrs by firefly luciferase reporter gene assay. In kind it is functional, cell-based, CV-1. Background: In a reporter assay the amount or activity of a reporter protein is the signal.

Assay [3] has as its target T3, Hepatocyte nuclear factor 4-alpha (Homo sapiens, UniProt P41235).
T3 sequence (P41235 whole entry): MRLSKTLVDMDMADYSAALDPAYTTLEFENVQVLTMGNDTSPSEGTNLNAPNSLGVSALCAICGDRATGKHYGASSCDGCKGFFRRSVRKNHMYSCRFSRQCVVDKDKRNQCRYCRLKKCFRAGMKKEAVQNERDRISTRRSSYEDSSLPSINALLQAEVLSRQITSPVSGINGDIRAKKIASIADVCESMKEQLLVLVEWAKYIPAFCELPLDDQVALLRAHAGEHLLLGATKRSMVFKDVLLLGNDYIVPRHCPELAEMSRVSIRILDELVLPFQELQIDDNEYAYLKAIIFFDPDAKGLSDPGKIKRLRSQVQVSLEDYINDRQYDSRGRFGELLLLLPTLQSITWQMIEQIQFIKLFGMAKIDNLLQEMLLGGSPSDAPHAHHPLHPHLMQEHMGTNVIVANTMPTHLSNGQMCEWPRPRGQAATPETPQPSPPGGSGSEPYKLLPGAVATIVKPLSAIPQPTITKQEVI
Kind of assay: Displacement of radiolabeled methyl-4-[5,6,7,8-tetrahydro-5,5,8,8-tetramethyl-3-ethyloxy-2-naphthalenyl]benzoyl benzoate from HNF4alpha (unknown origin).

For assay [4], the target named is T2, Hepatocyte nuclear factor 4-alpha. Description: Antagonist activity against rat HNF4alpha1 expressed in African green monkey CV1 cells assessed as inhibition of LGOI00695-induced receptor activation incubated for 24 hrs by firefly luciferase reporter gene assay. In kind it is functional, cell-based, CV-1.
Assay [5] addresses T1, Hepatocyte nuclear factor 4-alpha (Rattus norvegicus). Kind of assay: Antagonist activity against rat HNF4alpha1 expressed in African green monkey CV1 cells assessed as inhibition of LGOI00695-induced receptor activation incubated for 24 hrs by firefly luciferase reporter gene assay relative to control. Format: functional, cell-based. Particulars: CV-1.

`COC(=O)c1ccc([C@H]2Nc3ccccc3[C@H]3OCCC[C@@H]23)cc1` (relative stereo) gave an Efficacy in assay [1] of 165%. Besides, it took 426 nM to reach a half-maximal effect in assay [2] (EC50). Also, the affinity in assay [3], expressed as Ki, was 234 nM.
In the same order, the values of `O=C(O)Cc1ccc([C@H]2Nc3ccccc3[C@H]3OCCC[C@@H]23)cc1` (relative stereo) are 134%, 649 nM and 219 nM.
In the same order, the values of `Cc1cc2c(cc1C)[C@H]1OCCC[C@H]1[C@@H](c1ccc(C(=O)O)cc1)N2` (relative stereo) are 60%, 1730 nM and 135 nM.
In assay [1], `O=C(O)c1ccc(C2Nc3ccc4ccccc4c3[C@H]3OCC[C@@H]23)cc1` (relative stereo) displayed an Efficacy of 42%. The EC50 in assay [2] amounted to 778 nM. Moreover, the affinity in assay [3] corresponds to a Ki of 1080 nM.
For the compound `O=C(O)c1ccc(C2Nc3ccc4ccccc4c3[C@H]3OCCC[C@@H]23)cc1` (relative stereo), the IC50 in assay [4] amounted to 300 nM. Besides, the Efficacy in assay [5] came out at 69%. The Ki in assay [3] was 2170 nM.
